Experimental data taken from article PMC11070402, “New antiproliferative 3-substituted oxindoles inhibiting EGFR/VEGFR-2 and tubulin polymerization” (Molecular Diversity, 2023).
Like-named read-outs stand apart in the source and are kept apart here.

What was measured:
MCF-7 = experiment: NCI one-dose assay, MCF-7; format: cell-based, human; settings: MCF-7, 10 µM single dose, 48 h incubation
Outline: (§1)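 NCI-60 screen run at a single dose of 10 µM. Cytotoxicity assessed after 48 h incubation per NCI protocol.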

A549/ATCC = experiment: NCI one-dose assay, A549/ATCC; format: cell-based; settings: Homo sapiens, 10 µM single dose, 48 h incubation, read-out: cell growth inhibition % (GI %)
Procedure: (§2) All novel scaffolds 6a–j were carefully selected by the National Cancer Institute (NCI), Bethesda, USA, to elucidate their cytotoxic activity versus 60 human cancer cell lines at 10 µM as a single-dose concentration after a 48 h incubation period.
(§3) National Cancer Institution selected all the synthesized 6a–j (NCI), Bethesda, USA, for in vitro one-dose antitumor assay. The methodology protocol for the NCI anticancer screening was reported in detail elsewhere (http://www.dtp.nci.nih.gov). The anticancer assay was performed in full NCI 60 cell lines extracted from nine tumor cell lines, including leukemia, melanoma, lung, colon, CNS, ovarian, renal, prostate, and breast cancer cell lines.

[1] = tested on: HOP-92 (non-small cell lung cancer cell line); experiment: NCI one-dose assay, HOP-92; format: cell-based; settings: Homo sapiens; HOP-92 (Non-Small Cell Lung Cancer), 10 uM single dose; read-out: Growth inhibition %
Outline: as §1

[2] = tested on: SNB-75 cells (CNS cancer cell line); experiment: NCI one-dose assay, SNB-75; format: cell-based; settings: Homo sapiens; SNB-75 (CNS Cancer), 10 uM single dose; read-out: Growth inhibition %
Outline: as §1

SK-MEL-5 = experiment: NCI one-dose assay, SK-MEL-5; format: cell-based; settings: Homo sapiens; SK-MEL-5; 10 µM single dose, 48 h incubation; read-out: cell growth inhibition % (GI %)
Procedure: as §2, §3

K-562 = experiment: NCI one-dose assay, K-562; format: cell-based; settings: Homo sapiens, K562; K-562; 10 µM single dose, 48 h incubation; read-out: cell growth inhibition % (GI %)
Outline: as §1

MOLT-4 = experiment: NCI one-dose assay, MOLT-4; format: cell-based; settings: Homo sapiens; MOLT-4; 10 µM single dose, 48 h incubation; read-out: cell growth inhibition % (GI %)
Outline: as §1

SR = experiment: NCI one-dose assay, SR; format: cell-based; settings: Homo sapiens; SR; 10 µM single dose, 48 h incubation; read-out: cell growth inhibition % (GI %)
Outline: as §1

NCI-H23 = experiment: NCI one-dose assay, NCI-H23; format: cell-based; settings: Homo sapiens; NCI-H23; 10 µM single dose, 48 h incubation; read-out: cell growth inhibition % (GI %)
Procedure: as §2, §3

T-47D = experiment: NCI one-dose assay, T-47D; format: cell-based; settings: Homo sapiens, T47D; T-47D; 10 µM single dose, 48 h incubation; read-out: cell growth inhibition % (GI %)
Outline: as §1

LOX IMVI = experiment: NCI one-dose assay, LOX IMVI; format: cell-based; settings: Homo sapiens; LOX IMVI; 10 µM single dose, 48 h incubation; read-out: cell growth inhibition % (GI %)
Procedure: as §2, §3

UO-31 = experiment: NCI one-dose assay, UO-31; format: cell-based; settings: Homo sapiens; UO-31; 10 µM single dose, 48 h incubation; read-out: cell growth inhibition % (GI %)
Outline: as §1

MCF-7 cells = experiment: Cell cycle analysis by DNA flow cytometry; format: cell-based, human
Procedure: MCF-7 Cells were placed in a six-well plate at 1 × 10^5 concentration of cells/well and then kept for incubation for 24 h. […] Cells were then collected and fixed for 12 h using ice-cold 70% ethanol at 4 °C. Ethanol was then removed, and cells were washed with cold phosphate buffer saline (PBS, 0.5 ml) and preserved for 30 min at 37 °C. The cells were stained for 30 min with propidium iodide in the dark. A flow cytometer was used to detect DNA content.

[3] = tested on: MCF-7 (human breast cancer); experiment: Cytotoxicity versus MCF-7 cell line (MTT assay); settings: MCF7, read-out: MCF-7 (IC50 ± SD, uM)
Procedure: IC50 values were recorded using the Boltzman sigmoidal concentration–response curve equation using the nonlinear regression fitting models by GraphPad, Prism version 5 (GraphPad Software Inc., La Jolla, CA). MTT assay for MCF-7 cell lines. Cell line cells were obtained from American Type Culture Collection. Cells were cultured using DMEM media (Invitrogen/Life Technologies) supplemented with 10% FBS (Hyclone), 10 ug/ml of insulin (Sigma), and 1% penicillin–streptomycin. All the other chemicals and reagents were purchased from Sigma or Invitrogen. Cells were seeded in plates (cells density 1.2–1.8 × 10,000 cells/well) in a volume of 100 μl full-growth medium + 100 μl of the tested scaffold per well in a 96-well plate for 24 h before the application of the MTT assay protocol as reported, supplementary information.

[4] = tested on: 60 human cancer cell lines; experiment: NCI one-dose assay against sixty NCI cancer cell lines; format: cell-based
Outline: as §1

Compound: O=C1Nc2ccccc2C1=Cc1ccc(OCC(=O)c2ccc(Br)cc2)cc1 [Compound 6f, 3-{4-[2-(4-Bromophenyl)-2-oxoethoxy]benzylidene}indolin-2-one]
- inhibition at 10 µM (MCF-7; Homo sapiens, MCF7, 48 h, read-out: cell growth inhibition % (GI %)): 72.6%
- cell growth inhibition % (GI %) (MCF-7): 70.30%
- inhibition at 10 µM (A549/ATCC): 41.6%
- inhibition at 10 µM [1]: 24.5%
- inhibition at 10 µM [2]: 20.4%
- inhibition at 10 µM (SK-MEL-5): 71.1%
- inhibition at 10 µM (K-562): 72.2%
- inhibition at 10 µM (MOLT-4): 91.5%
- inhibition at 10 µM (SR): 63.7%
- inhibition at 10 µM (NCI-H23): 49.1%
- inhibition at 10 µM (T-47D): 53%
- inhibition at 10 µM (LOX IMVI): 71.1%
- inhibition at 10 µM (UO-31): 51.5%
- cell cycle arrest phase (MCF-7 cells; MCF-7 cells, flow cytometry): G0–G1phase
- Freq G1 (percentage of cells) (MCF-7 cells; MCF-7 treated with IC50 of compound 6f (19.43 μM in method), 24 h, control 40.68): 51.30%
- IC50 [3]: 14.8 ± 0.47 µM
- inhibition at 10 µM ([4]; 786-0 (Renal Cancer), 10 uM single dose, read-out: Growth inhibition %): 10.2%
- inhibition at 10 µM ([4]; ACHN (Renal Cancer), 10 uM single dose, read-out: Growth inhibition %): 30%
- inhibition at 10 µM ([4]; BT-549 (Breast Cancer), 10 uM single dose, read-out: Growth inhibition %): 43.4%
- inhibition at 10 µM ([4]; CAKI-1 (Renal Cancer), 10 uM single dose, read-out: Growth inhibition %): 32.2%
- inhibition at 10 µM ([4]; CCRF-CEM (Leukemia), 10 uM single dose, read-out: Growth inhibition %): 41.8%
- inhibition at 10 µM ([4]; COLO 205 (Colon Cancer), 10 uM single dose, read-out: Growth inhibition %): 34.1%
- inhibition at 10 µM ([4]; DU-145 (Prostate Cancer), 10 uM single dose, read-out: Growth inhibition %): 14.4%
- inhibition at 10 µM ([4]; EKVX (Non-Small Cell Lung Cancer), 10 uM single dose, read-out: Growth inhibition %): 34.4%
- inhibition at 10 µM ([4]; HCC-2998 (Colon Cancer), 10 uM single dose, read-out: Growth inhibition %): 14.9%
- inhibition at 10 µM ([4]; HCT-15 (Colon Cancer), 10 uM single dose, read-out: Growth inhibition %): 54.6%
- inhibition at 10 µM ([4]; HCT-116 (Colon Cancer), 10 uM single dose, read-out: Growth inhibition %): 44.6%
- inhibition at 10 µM ([4]; HL-60(TB) (Leukemia), 10 uM single dose, read-out: Growth inhibition %): 59.6%
- inhibition at 10 µM ([4]; HS 578T (Breast Cancer), 10 uM single dose, read-out: Growth inhibition %): 15.6%
- inhibition at 10 µM ([4]; HT-29, HT29 (Colon Cancer), 10 uM single dose, read-out: Growth inhibition %): 17.2%
- inhibition at 10 µM ([4]; IGROV-1, IGROV1 (Ovarian Cancer), 10 uM single dose, read-out: Growth inhibition %): 21.7%
- inhibition at 10 µM ([4]; KM12 (Colon Cancer), 10 uM single dose, read-out: Growth inhibition %): 22.7%
- inhibition at 10 µM ([4]; M14 (Melanoma), 10 uM single dose, read-out: Growth inhibition %): 26.9%
- inhibition at 10 µM ([4]; MALME-3M (Melanoma), 10 uM single dose, read-out: Growth inhibition %): 19%
- inhibition at 10 µM ([4]; MDA-MB-231, read-out: Growth inhibition %): 17.8%
- inhibition at 10 µM ([4]; MDA-MB-435 (Melanoma), 10 uM single dose, read-out: Growth inhibition %): 29.5%
- inhibition at 10 µM ([4]; MDA-MB-468 (Breast Cancer), 10 uM single dose, read-out: Growth inhibition %): 47.6%
- inhibition at 10 µM ([4]; NCI-H226 (Non-Small Cell Lung Cancer), 10 uM single dose, read-out: Growth inhibition %): 28.4%
- inhibition at 10 µM ([4]; NCI-H322M (Non-Small Cell Lung Cancer), 10 uM single dose, read-out: Growth inhibition %): 12.5%
- inhibition at 10 µM ([4]; NCI-H460 (Non-Small Cell Lung Cancer), 10 uM single dose, read-out: Growth inhibition %): 41.5%
- inhibition at 10 µM ([4]; NCI-H522 (Non-Small Cell Lung Cancer), 10 uM single dose, read-out: Growth inhibition %): 38.6%
- inhibition at 10 µM ([4]; OVCAR-3 (Ovarian Cancer), 10 uM single dose, read-out: Growth inhibition %): 22.5%
- inhibition at 10 µM ([4]; OVCAR-4 (Ovarian Cancer), 10 uM single dose, read-out: Growth inhibition %): 41.8%
- inhibition at 10 µM ([4]; OVCAR-8 (Ovarian Cancer), 10 uM single dose, read-out: Growth inhibition %): 30.4%
- inhibition at 10 µM ([4]; PC-3 (Prostate Cancer), 10 uM single dose, read-out: Growth inhibition %): 37.6%
- inhibition at 10 µM ([4]; RPMI-8226 (Leukemia), 10 uM single dose, read-out: Growth inhibition %): 50.8%
- inhibition at 10 µM ([4]; RXF 393 (Renal Cancer), 10 uM single dose, read-out: Growth inhibition %): 32.4%
- inhibition at 10 µM ([4]; SF-295 (CNS Cancer), 10 uM single dose, read-out: Growth inhibition %): 41.4%
- inhibition at 10 µM ([4]; SF-539 (CNS Cancer), 10 uM single dose, read-out: Growth inhibition %): 18.5%
- inhibition at 10 µM ([4]; SK-MEL-2 (Melanoma), 10 uM single dose, read-out: Growth inhibition %): 27.6%
- inhibition at 10 µM ([4]; SK-MEL-28 (Melanoma), 10 uM single dose, read-out: Growth inhibition %): 19.9%
- inhibition at 10 µM ([4]; SN12C (Renal Cancer), 10 uM single dose, read-out: Growth inhibition %): 37.3%
- inhibition at 10 µM ([4]; SNB-19 (CNS Cancer), 10 uM single dose, read-out: Growth inhibition %): 20.4%
- inhibition at 10 µM ([4]; SW-620 (Colon Cancer), 10 uM single dose, read-out: Growth inhibition %): 21.9%
- inhibition at 10 µM ([4]; U-251, U251 (CNS Cancer), 10 uM single dose, read-out: Growth inhibition %): 28.5%
- inhibition at 10 µM ([4]; UACC-62 (Melanoma), 10 uM single dose, read-out: Growth inhibition %): 47.4%
- inhibition at 10 µM ([4]; UACC-257 (Melanoma), 10 uM single dose, read-out: Growth inhibition %): 26.4%
